ChEMBL document CHEMBL1201862, “PubChem BioAssay data set” (2004)
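In this assay, cells in 96-well plates receive the compound at five concentrations for 48 hours. Endpoints are linearly interpolated between the surrounding concentrations. Here, GI50 denotes the concentration required for 50% inhibition of growth.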 Calls of active or inactive are those of the source. Rule as the data show it: active = GI50 up to about 1.1 µM and inactive = higher.

Experiments:
Assay in all cases: growth of human tumour cells (NCI), 48 h
XF498 = tested on: XF498
HOP-18 = tested on: HOP-18
LXFL 529 = tested on: LXFL 529
DMS-273 = tested on: DMS-273
SNB-78 = tested on: SNB-78
KM-20L2 = tested on: KM-20L2
RXF 631 = tested on: RXF 631
BT-549 = tested on: BT-549
DMS-114 = tested on: DMS-114

CC1=C(C(=O)O)N2C(=O)[C@@H](NC(=O)C(c3ccccc3)N3CSC(=S)N(C(C)C)C3)C2SC1 (some centres not stated)
GI50 (XF498): > 100 µM (inactive)
GI50 (HOP-18): > 100 µM (inactive)
GI50 (LXFL 529): > 100 µM (inactive)
GI50 (DMS-273): > 100 µM (inactive)
GI50 (SNB-78): > 100 µM (inactive)
GI50 (KM-20L2): > 100 µM (inactive)

COc1cc2ccc3c4ccccc4cnc3c2cc1OC
GI50 (RXF 631): > 100 µM (inactive)
GI50 (HOP-18): > 100 µM (inactive)
GI50 (LXFL 529): > 100 µM (inactive)
GI50 (SNB-78): > 100 µM (inactive)
GI50 (KM-20L2): > 100 µM (inactive)

S=CN1CCCCC1
GI50 (BT-549): > 100 µM (inactive)

CCOC(=O)c1sc(=S)n(-c2ccc(Cl)cc2)c1-n1cc(-c2ccccc2)c(C#N)c1N
GI50 (BT-549): 23.7 µM (inactive)

CC(C)=NOC(=O)CNC(=O)C(Cc1ccccc1)NC(=O)C(C)NC(=O)OC(C)(C)C (configuration not stated)
GI50 (BT-549): > 100 µM (inactive)

CNc1nc2c(C)ccc3nc(N(C)C)[nH]c3c-2n1
GI50 (BT-549): 84.7 µM (inactive)

CCOP(=O)(OCC)OC(C#N)c1ccc(-c2ccccc2)cc1 (configuration not stated)
GI50 (DMS-114): 15 µM (inactive)
GI50 (XF498): 23.9 µM (inactive)
GI50 (HOP-18): 27.7 µM (inactive)
GI50 (LXFL 529): 17.8 µM (inactive)
GI50 (DMS-273): 14.4 µM (inactive)
GI50 (SNB-78): 33 µM (inactive)
GI50 (KM-20L2): 41.3 µM (inactive)

Cc1cc(N(CCC#N)CCC#N)ccc1/C=C1N=C(/C=C\c2ccccc2)N(NC(=O)CC(=O)Nc2ccccc2Cl)C\1=O
GI50 (RXF 631): > 100 µM (inactive)
GI50 (DMS-114): > 100 µM (inactive)
GI50 (HOP-18): > 100 µM (inactive)
GI50 (LXFL 529): > 100 µM (inactive)
GI50 (KM-20L2): > 100 µM (inactive)

Nc1nc(N)c(N=O)c(OCC2CCCCC2)n1
GI50 (BT-549): 7.82 µM (inactive)

COc1cc2oc3ccccc3c(=O)c2cc1CSc1ccccc1N
GI50 (BT-549): 29.3 µM (inactive)

CC(=O)NNC1=NN(C(C)=O)C2(S1)C(=O)Nc1ccc(C)cc12 (configuration not stated)
GI50 (BT-549): 47.8 µM (inactive)

O=c1[nH]c(=O)n(C2CC(O)C(CO)O2)c2nc3cc4ccccc4cc3nc12 (configuration not stated)
GI50 (BT-549): > 100 µM (inactive)

CC1(c2sccc2Cl)CC(c2sccc2Cl)=C(C#N)C(=C(C#N)C#N)N1 (configuration not stated)
GI50 (BT-549): 17.8 µM (inactive)

CN(Cc1cnc2nc(N)nc(N)c2n1)c1ccc(C(=O)NC(CCC(=O)O)C(=O)O)c2ccccc12 (configuration not stated)
GI50 (DMS-114): 0.000847 µM (active)
GI50 (XF498): > 100 µM (inactive)
GI50 (HOP-18): > 100 µM (inactive)
GI50 (LXFL 529): 0.00135 µM (active)
GI50 (DMS-273): 0.01 µM (active)
GI50 (SNB-78): > 65 µM (inactive)
GI50 (KM-20L2): 0.01 µM (active)
GI50 (BT-549): 0.092 µM (active)

COC1(OC)N=C(N)C2(C#N)C3(C(=O)N(C(C)C)N=C3C)C12C#N (configuration not stated)
GI50 (BT-549): > 100 µM (inactive)

CCCC1N2CCCCC2[C@@H]2c3[nH]c4ccccc4c3CCN12 (some centres not stated)
GI50 (DMS-114): > 100 µM (inactive)
GI50 (XF498): > 100 µM (inactive)
GI50 (HOP-18): > 100 µM (inactive)
GI50 (LXFL 529): > 100 µM (inactive)
GI50 (DMS-273): > 100 µM (inactive)
GI50 (SNB-78): 53.8 µM (inactive)
GI50 (KM-20L2): > 100 µM (inactive)

COc1cccc2[s+]snc12
GI50 (XF498): 18.8 µM (inactive)
GI50 (HOP-18): 41.3 µM (inactive)
GI50 (LXFL 529): 43.3 µM (inactive)
GI50 (DMS-273): 53.2 µM (inactive)
GI50 (SNB-78): 38.7 µM (inactive)
GI50 (KM-20L2): > 100 µM (inactive)

N#CC(C#N)c1ccc(C(=O)N2CCC[C@H]2CO)cc1
GI50 (RXF 631): > 100 µM (inactive)
GI50 (DMS-114): > 100 µM (inactive)
GI50 (HOP-18): > 100 µM (inactive)
GI50 (LXFL 529): > 100 µM (inactive)
GI50 (DMS-273): > 100 µM (inactive)
GI50 (KM-20L2): > 100 µM (inactive)

O=[N+]([O-])c1cccc(-c2ncc3c(n2)-c2ccccc2C3)c1
GI50 (BT-549): > 100 µM (inactive)

CS(=O)(=O)C(=Cc1ccccc1Cl)S(C)(=O)=O
GI50 (BT-549): > 100 µM (inactive)

NN1C(=O)C(CCO)S/C1=N/N=C1/SC(CCO)C(=O)N1N (configuration not stated)
GI50 (DMS-114): > 100 µM (inactive)
GI50 (XF498): 16.1 µM (inactive)
GI50 (HOP-18): > 100 µM (inactive)
GI50 (LXFL 529): > 100 µM (inactive)
GI50 (SNB-78): > 100 µM (inactive)
GI50 (KM-20L2): > 100 µM (inactive)

Cc1cc(C)nc(NS(=O)(=O)c2ccc(Nc3c4ccccc4nc4c(C(=O)Nc5ccc(S(=O)(=O)N=C(N)N)cc5)cccc34)cc2)n1
GI50 (RXF 631): > 100 µM (inactive)
GI50 (DMS-114): > 100 µM (inactive)
GI50 (HOP-18): > 100 µM (inactive)
GI50 (DMS-273): > 100 µM (inactive)
GI50 (SNB-78): > 100 µM (inactive)
GI50 (KM-20L2): > 100 µM (inactive)

C=CCc1c(Cl)nc(Cl)nc1Cl
GI50 (BT-549): 0.0474 µM (active)

O=C(O)c1ccc(Nc2cnc3ccc(C(F)(F)F)cc3n2)cc1
GI50 (BT-549): 20.9 µM (inactive)

CC(=O)OC1CC2(c3ccccc3)C(=O)c3ccccc3N2O1 (configuration not stated)
GI50 (DMS-114): > 100 µM (inactive)
GI50 (XF498): > 100 µM (inactive)
GI50 (HOP-18): > 100 µM (inactive)
GI50 (LXFL 529): > 100 µM (inactive)
GI50 (DMS-273): > 100 µM (inactive)
GI50 (SNB-78): > 100 µM (inactive)
GI50 (KM-20L2): > 100 µM (inactive)

COC(=O)CC1c2ccccc2N2C(=O)Cc3c([nH]c4ccccc34)C12 (configuration not stated)
GI50 (BT-549): > 100 µM (inactive)

COc1ccc2[nH]c(CCNC(=O)c3cc([N+](=O)[O-])cc([N+](=O)[O-])c3)cc2c1
GI50 (BT-549): > 100 µM (inactive)

COC(=O)c1ccc2c(c1)CC1(C2)Cc2cc3c(c(C(=O)OC)c2C1)CCCC3 (configuration not stated)
GI50 (BT-549): > 10 µM (inactive)

CC(=O)O[C@H]1C(=O)[C@@]2(C)[C@H]([C@H](OC(=O)c3cccc(C(F)(F)F)c3)[C@]3(O)C[C@H](OC(=O)[C@H](O)[C@@H](NC(=O)c4ccccc4)c4ccccc4)C(C)=C1C3(C)C)[C@]1(OC(C)=O)CO[C@@H]1C[C@@H]2O
GI50 (BT-549): 0.035 µM (active)
